Laboratory results taken from patent US20090298077A1, “ASSAY FOR MEASUREMENT OF APURINIC/APYRIMIDINIC (AP) SITES AND FOR SCREENING AP-SITE REACTIVE COMPOUNDS” (priority 2006, published 2009).
Where “and” joins values, the source holds several entries; their conditions need not be identical. Equal values may be shown once.

Experiments:
AP-DNA [1] = test: FARP AP-site assay: screening of MX-like compounds in competition with FARP; assay type: binding, calf; conditions: 100 nM AP-DNA
Experimental: (§1) 100 μL of 5 μM FARP in phosphate buffer (10 mM, pH 7.0) was added to 200 μL phosphate buffer (10 mM, pH 7.0) containing 10 μg of DNA extracted from cells, individual AP-DNA standard (10, 20, 40, 80, 160, 320, and 640 nM AP), and blank AP-DNA control, respectively. After vortexing, the reaction was allowed to proceed at room temperature for 15 min. At the end of the reaction 200 μL ammonium acetate (7.5M) and 1000 μL ice-cold ethanol (100%) were added. The solution was mixed gently by inverting the tube before keeping it at −20° C. for 30 min. Each tube was centrifuged at 4° C. and 12,000 g for 10 min. The supernatant was poured out carefully so that no loss of FARP-AP-DNA took place. 1200 μL of ice-cold ethanol (70%) was added to each tube to remove the free FARP by centrifugation at 4° C. and 12,000 g for 10 min. This washing step with 70% ice-cold ethanol was repeated two more times. After discarding the supernatant, the FARP-AP-DNA precipitate in the tube was dried at room temperature for 30 min. in a venting hood. The FARP-AP-DNA precipitate was hydrated and resuspended in 200 μL of phosphate buffer (10 mM, pH 9.0) at room temperature for 1 hr. The fluorescence intensity of the resultant FARP-AP-DNA solution was measured by the FluoroMax-2 spectrofluorometer. A calibration curve could be constructed by plotting the fluorescence intensity versus the concentration of AP sites.
One important application of the FARP AP-site assay developed is to screen MX-like compounds for their reactivity to AP site based on known chemical structures. In this work, four compounds with aminooxy or hydrazone group (i.e., MXL1O1, MXLIO2, MXLI 03, and MXL 104) together with MX were tested. The detail experiment included mixing equal concentration and volume of each individual test compound with FARP (50 μM in 100 μL of 10 mM phosphate buffer at pH 7.0) before reacting with 200 µL of 100 nM AP-DNA. The remaining experimental procedures were the same as described in the Experimental section. The data of fluorescence intensity reduced by MX and MX-like compounds were given in Table XI and the fluorescence intensity of the test compounds were compared in FIG. 19.

AP-DNA [2] = test: Reversibility study of the condensation reaction between FARP / MX and AP-DNA; assay type: binding, calf; conditions: result in words, under the assay conditions
Experimental: It was known that the aldehyde group of an AP site could easily condense with aminooxy or hydrazone nucleophiles. However, the reversibility of the reaction was not clear, especially in the presence of another competing nucleophile. To clarify the above, two experiments were designed and carried out as follows: (a) FARP (50 μM in 100 μL of 10 mM phosphate buffer at pH 7.0) reacted with AP-DNA (125 nM in 200 μL of 10 mM phosphate buffer at pH 7.0) for 1 hr, after washing the condensation product (FARP-AP-DNA) incubated with MX (50 μM in 100 μL of 10 mM phosphate buffer at pH 7.0) for various time periods; and (b) MX (50 μM in 100 μL of 10 mM phosphate buffer at pH 7.0) reacted with AP-DNA (125 nM, 200 μL) for 1 hr, after washing the condensation product (MX-AP-DNA) incubated with FARP (50 μM in 100 μL of 10 mM phosphate buffer at pH 7.0) for various time periods.

SW480 colon cancer cells [3] = test: ARP assay of AP sites in DNA from drug-treated SW480 cells; assay type: cell-based; conditions: 2 hrs at 37° C., MX 12.5 mM where combined
Description: (§2) An ARP method modified for the slot-blot vacuum filter device was used in this work. […]

SW480 colon cancer cells [4] = test: FARP assay of AP sites in DNA from drug-treated SW480 cells; assay type: cell-based; conditions: 2 hrs at 37° C., MX 12.5 mM where combined
Experimental: as §1
(§3) Adherent SW480 colon cancer cells (from the American Type Culture Collection (Manassas, Va., USA), and human nonadherent mononuclear cells from heparinized peripheral blood of a normal donor, which were purified by the Ficoll-Hypaque density gradient centrifugation technique, were used in the in vitro experiments of TMZ and MX.
(§4) The cells (5×10^6 cells) were plated in 100-mm culture dishes and treated by TMZ alone at various concentrations (0, 187, 375, 750, and 1500 μM), and together with MX (12.5 mM) for 2 hrs at 37° C. At the end of treatment, the cells were washed by either rinsing the SW480 cells on dishes (SW480) or centrifugation of the human cells in tubes with the media. […]

[5] = system: human nonadherent mononuclear cells; test: ARP assay of AP sites in DNA from drug-treated human nonadherent mononuclear cells; assay type: cell-based; conditions: human nonadherent cell, 2 hrs at 37° C., MX 12.5 mM where combined
Description: as §2

[6] = system: human nonadherent mononuclear cells; test: FARP assay of AP sites in DNA from drug-treated human nonadherent mononuclear cells; assay type: cell-based; conditions: human nonadherent cell, 2 hrs at 37° C., MX 12.5 mM where combined
Experimental: as §1, §3
as §4, with “media. After plating the cells in dishes with fresh media, 3 mM MX was added to the dishes that were treated with TMZ and MX together. The cells were harvested by centrifugation at […] after the treatment of 3 mM MX.” for “media.”

[7] = test compound mixed with FARP at equal concentration and volume (50 μM in 100 μL, pH 7.0)

Structure (SMILES)	Normalized Fluorescence Intensity % (AP-DNA [1]; relative to FARP alone = 100, equal concentration of test compound and FARP) [%]	Fluorescence Intensity Individual Measurement (AP-DNA [1]; [7])	Fluorescence Intensity Mean (AP-DNA [1]; [7])	reversibility of the condensation reaction with aldehyde group of AP-DNA (AP-DNA [2])	ARP Assay Band Intensity/10^3 (SW480 colon cancer cells [3]; SW480, TMZ 187 μM)	ARP Assay Band Intensity/10^3 (SW480 colon cancer cells [3]; SW480, TMZ 375 μM)	ARP Assay Band Intensity/10^3 (SW480 colon cancer cells [3]; SW480, TMZ 750 μM)	FARP Assay Fluorescence Intensity/10^4 (SW480 colon cancer cells [4]; SW480, TMZ 187 μM)	FARP Assay Fluorescence Intensity/10^4 (SW480 colon cancer cells [4]; SW480, TMZ 375 μM)	FARP Assay Fluorescence Intensity/10^4 (SW480 colon cancer cells [4]; SW480, TMZ 750 μM)	ARP Assay Band Intensity/10^3 ([5]; TMZ 187 μM)	ARP Assay Band Intensity/10^3 ([5]; TMZ 375 μM)	ARP Assay Band Intensity/10^3 ([5]; TMZ 750 μM)	ARP Assay Band Intensity/10^3 ([5]; TMZ 1500 μM)	FARP Assay Fluorescence Intensity/10^4 ([6]; TMZ 187 μM)	FARP Assay Fluorescence Intensity/10^4 ([6]; TMZ 375 μM)	FARP Assay Fluorescence Intensity/10^4 ([6]; TMZ 750 μM)	FARP Assay Fluorescence Intensity/10^4 ([6]; TMZ 1500 μM)
NNC(=S)Nc1ccc(-c2c3ccc(=O)cc-3oc3cc(O)ccc23)c(C(=O)O)c1 [FARP, fluorescein-5-thiosemicarbazide]	100.0	17080.0 and 16892.0	16986.0	irreversible														
Cn1nnc2c(C(N)=O)ncn2c1=O [TMZ, 3,4-dihydro-3-methyl-4-oxoimidazo[5,1-d]-as-tetrazine-8-carboxamide]					1.420	2.723	5.233	2.428	3.691	5.310	2.201	3.524	4.352	5.844	1.622	3.138	4.201	15.77
